Source: US6822064B1, “Polymerizable macromers and preparation thereof” (Council of Scientific and Industrial Research, priority 2003, dated 2004)

Target: lysozyme (Gallus gallus, UniProt P00698)
Assay: Estimation of relative inhibition of lysozyme (Micrococcus lysodeikticus substrate, absorbance at 450 nm)
Assay type: biochemical
Conditions: for ligand concentration at maximum inhibition: ligand concentration at which the maximum inhibition is achieved; for Imax: maximum relative inhibition of lysozyme
From the text: This example describes the estimation of inhibition of lysozyme by monomers, oligomers and macromer. I50 denotes the concentration of the ligand containing NAG at which 50% of the highest achievable inhibition is achieved. Imax denotes the ligand concentration at which the maximum inhibition is achieved.
Micrococcus lysodeikticus is a substrate for the enzyme lysozyme. Relative binding of macromers was estimated by using a procedure reported by Neuberger and Wilson (1967).
1.5% w/v stock solutions of macromer was prepared in 0.0066 M phosphate buffer pH 6.2 containing 0.0154 m sodium chloride and 0.008 M sodium azide. One milliliter of stock solution containing different ligand concentration was mixed with 1.6 ml of 78 μg/ml of Micrococcus lysodeikticus in a 3-ml capacity glass cuvette. The mixture was incubated for 5 minutes at 20° C. To this mixture 0.1 ml of lysozyme (27 μg/ml) was added and mixed thoroughly. The relative absorbance at 450 nm (Δ450) was recorded for 30 seconds. A blank reading without the ligand was noted and the change in the absorbance per second was calculated. Then relative inhibition was calculated.

Sequence of lysozyme (P00698 19-147): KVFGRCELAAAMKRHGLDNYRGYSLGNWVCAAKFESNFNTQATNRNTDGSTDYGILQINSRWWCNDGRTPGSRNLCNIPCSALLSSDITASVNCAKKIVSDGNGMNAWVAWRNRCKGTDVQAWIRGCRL

SMILES | ligand concentration at maximum inhibition | Imax | IC50 (ligand concentration at which 50% of the highest achievable inhibition is achieved, pH 6.2, 20° C., read-out: I50)
CC(=O)N[C@H]1C(O)O[C@H](CO)[C@@H](O)[C@@H]1O (some centres unmarked) [NAG, N-Acetyl Glucosamine, reference compound] | 92.50 mM | 55.29 | –
C=CC(=O)OC[C@H]1OC(O)[C@H](NC(C)=O)[C@@H](O)[C@@H]1O (some centres unmarked) [Ac. NAG, Acryloyl N-Acetyl Glucosamine] | 14.81 mM | 50.00 | 14.8 mM
